# Measurements from ChEMBL document CHEMBL1201862, “PubChem BioAssay data set” (2004).
#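 Five compound concentrations were applied to cells in 96-well plates for 48 hours; endpoints were derived by simple linear interpolation of the resulting dose-response curve. GI50: concentration for 50% inhibition of growth.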 Calls of active or inactive are those of the source. No stated cut-off is given here; in the data, active = GI50 up to about 1.1 µM and inactive = higher.
# Legend:
# Assay in all cases: DTP human tumour cell line panel, 48 h
# SW-620 = test system: SW-620
# Malme-3M = test system: Malme-3M
# UACC-257 = test system: UACC-257
# SNB-75 = test system: SNB-75
# SK-OV-3 = test system: SK-OV-3
# MDA-N = test system: MDA-N
# A498 = test system: A498
# IGROV-1 = test system: IGROV-1
# MOLT-4 = test system: MOLT-4
# NCI-H460 = test system: NCI-H460
# M14 = test system: M14
# ACHN = test system: ACHN
# OVCAR-8 = test system: OVCAR-8
# HCC 2998 = test system: HCC 2998
# SF-539 = test system: SF-539
# LOX IMVI = test system: LOX IMVI
# NCI-H226 = test system: NCI-H226
# SN12C = test system: SN12C
# HOP-62 = test system: HOP-62
# MCF7 = test system: MCF7
SMILES,GI50 (SW-620),GI50 (Malme-3M),GI50 (UACC-257),GI50 (SNB-75),GI50 (SK-OV-3),GI50 (MDA-N),GI50 (A498),GI50 (IGROV-1),GI50 (MOLT-4),GI50 (NCI-H460),GI50 (M14),GI50 (ACHN),GI50 (OVCAR-8),GI50 (HCC 2998),GI50 (SF-539),GI50 (LOX IMVI),GI50 (NCI-H226),GI50 (SN12C),GI50 (HOP-62),GI50 (MCF7)
Cc1c2cnccc2c(C)c2c1c1ccccc1n2CCOC(=O)c1ccccc1,6.31 µM (inactive),11.5 µM (inactive),12.4 µM (inactive),22.9 µM (inactive),5.33 µM (inactive),17.6 µM (inactive),1.75 µM (inactive),9.44 µM (inactive),5.25 µM (inactive),3.45 µM (inactive),26.7 µM (inactive),4.74 µM (inactive),6.55 µM (inactive),10.7 µM (inactive),6.21 µM (inactive),8.38 µM (inactive),12.6 µM (inactive),2.52 µM (inactive),13.2 µM (inactive),9.64 µM (inactive)
Cn1cnc([N+](=O)[O-])c1Sc1nnc(-c2cccnc2)n1C,14.7 µM (inactive),15.5 µM (inactive),13.9 µM (inactive),58.7 µM (inactive),> 100 µM (inactive),19.5 µM (inactive),> 79.1 µM (inactive),68.5 µM (inactive),18.2 µM (inactive),> 85.1 µM (inactive),16.8 µM (inactive),17.1 µM (inactive),21.3 µM (inactive),30.9 µM (inactive),22.2 µM (inactive),17.8 µM (inactive),> 66.4 µM (inactive),25.4 µM (inactive),> 91.6 µM (inactive),23.8 µM (inactive)
COc1cc(-c2cc(O)c(-c3ccc4ccccc4n3)c(O)n2)cc(OC)c1OC,19.1 µM (inactive),13.1 µM (inactive),54.3 µM (inactive),17.9 µM (inactive),39.6 µM (inactive),3.56 µM (inactive),> 61 µM (inactive),43.5 µM (inactive),6.97 µM (inactive),31 µM (inactive),25.4 µM (inactive),> 62.7 µM (inactive),> 32.4 µM (inactive),> 60.3 µM (inactive),30.7 µM (inactive),19.1 µM (inactive),> 48.3 µM (inactive),> 56.6 µM (inactive),53.3 µM (inactive),39.1 µM (inactive)
CN(CCNC(=O)c1cn(C)c2c1ccc1ccccc12)CCNC(=O)c1cn(C)c2c1ccc1ccccc12,2.7 µM (inactive),2.14 µM (inactive),2.12 µM (inactive),1.79 µM (inactive),8.04 µM (inactive),2.22 µM (inactive),10.6 µM (inactive),1.62 µM (inactive),2.55 µM (inactive),1.85 µM (inactive),1.95 µM (inactive),3.36 µM (inactive),27.9 µM (inactive),0.71 µM (active),1.76 µM (inactive),2.52 µM (inactive),5.55 µM (inactive),2.64 µM (inactive),1.85 µM (inactive),1.51 µM (inactive)
COc1ccc(NC(=O)CC(=O)N2N=C(c3ccccc3)C(/N=N/c3ccc(S(=O)(=O)CCOS(=O)(=O)O)cc3)C2=O)cc1 (stereo not given),> 100 µM (inactive),> 100 µM (inactive),> 100 µM (inactive),> 100 µM (inactive),> 100 µM (inactive),> 100 µM (inactive),> 100 µM (inactive),> 100 µM (inactive),> 100 µM (inactive),> 100 µM (inactive),> 100 µM (inactive),> 100 µM (inactive),> 100 µM (inactive),> 100 µM (inactive),> 100 µM (inactive),> 100 µM (inactive),> 100 µM (inactive),> 100 µM (inactive),> 100 µM (inactive),> 100 µM (inactive)
CN(C)c1ccc(/C=C2\C[C@H]3[C@@H]4CC=C5C[C@@H](N6CCCC6)CC[C@]5(C)[C@H]4CC[C@]3(C)[C@H]2O)cc1,1.3 µM (inactive),0.938 µM (active),0.957 µM (active),0.959 µM (active),4.39 µM (inactive),1.01 µM (active),1.01 µM (active),0.989 µM (active),1.82 µM (inactive),1.48 µM (inactive),0.773 µM (active),0.873 µM (active),0.769 µM (active),0.91 µM (active),3.78 µM (inactive),0.787 µM (active),0.813 µM (active),1.22 µM (inactive),1.71 µM (inactive),2.96 µM (inactive)
O=C1N/C(=N\N=C\c2ccccc2)C2(CCCCC2)O1,> 100 µM (inactive),> 100 µM (inactive),> 100 µM (inactive),20.5 µM (inactive),> 100 µM (inactive),> 100 µM (inactive),> 100 µM (inactive),> 100 µM (inactive),39.3 µM (inactive),45 µM (inactive),> 100 µM (inactive),> 100 µM (inactive),99.5 µM (inactive),87.3 µM (inactive),> 100 µM (inactive),56.5 µM (inactive),44.5 µM (inactive),95.3 µM (inactive),83.4 µM (inactive),> 100 µM (inactive)
